The series concerns aged Diet-Induced Obese (DIO) C57BL/6NTac mice. The experiment in a line: Forced exhaustion running, activity and body composition in aged DIO mice. Type of series: in vivo, mouse. The settings on record: 30 mg/kg. As for the experimental part: All animal studies were performed in accordance with Charles River Laboratories animal welfare protocols. Male Diet-Induced Obese (DIO) C57BL/6NTac mice 28 weeks of age were fed a high fat diet. 20 mice were randomized based on bodyweight into two cohorts of 10 mice each. Five mice were assigned to each treatment group in each cohort (i) vehicle or (ii) Compound (I) at 30 mg/kg via (n=10 total animals per treatment). Groups were dosed orally by gavage, once daily for 45 days at the start of the dark cycle. Mice were acclimatized to the treadmill room for one hour on days of training or endurance runs. After an initial 5 min exploration period the treadmill belt moved at 5 m/min for 10 min with the motivation grid intensity set to 0.46 mA. Mice required a few visits to the grid to learn to walk/run on the moving belt and avoid the electric grid shock. After two acclimatization periods the mice learned to avoid the electric grid and stay on the moving belt, with fewer visits to the electric grid. The maximum speed for the endurance run was capped at 16.5 m/min based on speed acclimation runs, which represents the speed at which 25% of animals are running in the top ⅔ of the treadmill at a 5° slope. The mice were considered exhausted if they stayed on the electric grid with no limbs on the treadmill belt for 10 seconds.
Endurance was calculated as a Fatigue Index; this accounts for distance traveled, time on the treadmill, the number of breaks in running, and the length of those breaks. The cumulative number of stimulations for individual animals was plotted over time and the area under the curve (AUC) was calculated. AUC was divided by the distance individual animals completed during the course of the fatigue run to obtain the Fatigue Index. Voluntary activity is defined as the total number of X and Y axis laser beam breaks and rearing is defined as the total number of Z axis breaks per treatment group.

Where [1] appears, read: 5 weeks, vs vehicle, FIG. 6D-6E.

The results in this text go back to US20240358681A1, “METHODS OF USE OF PPAR AGONIST COMPOUNDS AND PHARMACEUTICAL COMPOSITIONS THEREOF” (Mitobridge, Inc., priority 2021, published 2024).

“Also recorded” adds a separate entry of the source.

For the compound `Cc1cnc(-c2ccc(C(F)(F)F)cc2)n1Cc1ccccc1OCCC[C@@H](C)CC(=O)O` [Compound (I), (R)-3-Methyl-6-(2-((5-methyl-2-(4-(trifluoromethyl)phenyl)-1H-imidazol-1-yl)methyl)-phenoxy)hexanoic acid], the “rate of falls in the motivational grid” value (5 weeks, FIG. 5F) was “decrease”. In addition, the run distance result (5 weeks, FIG. 5H) was “no change”. In addition, the “Fatigue Index” value (5 weeks, vs vehicle, FIG. 5I) is “less fatigued”. Moreover, under setting [1], the rearing entry is recorded as “trend towards increased” and the voluntary activity entry is given as “trend towards increased; also recorded: No statistically significant differences”. Besides, where the note is “during the study, FIG. 6B”, the body weight entry is given as “did not alter”. The body composition result (during the study, FIG. 6C) was “did not alter; also recorded: No statistically significant differences”.
